Test results reported in US10191057B2, “Methods of diagnosing, classifying and treating endometrial cancer and precancer” (THE TRANSLATIONAL GENOMICS RESEARCH INSTITUTE, priority 2007, dated 2019).

Experiments:
AN3CA cells [1] = test: Cell cycle analysis (propidium iodide, flow cytometry), AN3CA; format: cell-based, human; conditions: 1 μM, 72 hrs
Experimental: (§1) Cells were plated at a density of 4×10^5 cells per well in a 6 well plate. The next day, cells were infected with lentiviral stocks in the presence of 6 μg/ml polybrene (Sigma-Aldrich, St. Louis, Mo.). Empty vector and nonsilencing shRNA infections were used as controls for each experiment. […] Growth Inhibition Assay Twenty-four hours after infection, cells were trypsinized and plated in 96 well plates in full growth medium at a density of 5,000 cells per well, in triplicate, and proliferation assessed using the Sulforhodamine B (SRB) assay (Sigma-Aldrich, St. Louis, Mo.). […] The protein-bound dye was dissolved in 10 mM Tris base solution, and absorbance measured at 510 nm. […] 48 hours after transfection, floating and attached cells were collected, washed in cold PBS, resuspended in Annexin binding buffer (10 mM Hepes (pH 7.4), 140 mM NaCl, 2.5 mM CaCl2), stained with 500 ng/mL annexinV-FITC and 1 μg/mL propidium iodide (Sigma-Aldrich, St. Louis, Mo.), and analyzed for annexin positive cells using a CyAn ADP flow cytometer and Summit software, version 4.3 (Dako Cytomation, Carpinteria, Calif.). […] 72 hours later, cells were stained with propidium iodide as described {Krishan, 1975 #28} and analyzed by flow cytometry. […] FGFR2 expression was detected with BekC17 antibody (Santa Cruz Biotechnology, Inc., Santa Cruz, Calif.). […]

VEGFR2 = VEGFR2 (Homo sapiens, UniProt P35968); conditions: cited from earlier work
VEGFR2, sequence (P35968 20-1356, species assumed): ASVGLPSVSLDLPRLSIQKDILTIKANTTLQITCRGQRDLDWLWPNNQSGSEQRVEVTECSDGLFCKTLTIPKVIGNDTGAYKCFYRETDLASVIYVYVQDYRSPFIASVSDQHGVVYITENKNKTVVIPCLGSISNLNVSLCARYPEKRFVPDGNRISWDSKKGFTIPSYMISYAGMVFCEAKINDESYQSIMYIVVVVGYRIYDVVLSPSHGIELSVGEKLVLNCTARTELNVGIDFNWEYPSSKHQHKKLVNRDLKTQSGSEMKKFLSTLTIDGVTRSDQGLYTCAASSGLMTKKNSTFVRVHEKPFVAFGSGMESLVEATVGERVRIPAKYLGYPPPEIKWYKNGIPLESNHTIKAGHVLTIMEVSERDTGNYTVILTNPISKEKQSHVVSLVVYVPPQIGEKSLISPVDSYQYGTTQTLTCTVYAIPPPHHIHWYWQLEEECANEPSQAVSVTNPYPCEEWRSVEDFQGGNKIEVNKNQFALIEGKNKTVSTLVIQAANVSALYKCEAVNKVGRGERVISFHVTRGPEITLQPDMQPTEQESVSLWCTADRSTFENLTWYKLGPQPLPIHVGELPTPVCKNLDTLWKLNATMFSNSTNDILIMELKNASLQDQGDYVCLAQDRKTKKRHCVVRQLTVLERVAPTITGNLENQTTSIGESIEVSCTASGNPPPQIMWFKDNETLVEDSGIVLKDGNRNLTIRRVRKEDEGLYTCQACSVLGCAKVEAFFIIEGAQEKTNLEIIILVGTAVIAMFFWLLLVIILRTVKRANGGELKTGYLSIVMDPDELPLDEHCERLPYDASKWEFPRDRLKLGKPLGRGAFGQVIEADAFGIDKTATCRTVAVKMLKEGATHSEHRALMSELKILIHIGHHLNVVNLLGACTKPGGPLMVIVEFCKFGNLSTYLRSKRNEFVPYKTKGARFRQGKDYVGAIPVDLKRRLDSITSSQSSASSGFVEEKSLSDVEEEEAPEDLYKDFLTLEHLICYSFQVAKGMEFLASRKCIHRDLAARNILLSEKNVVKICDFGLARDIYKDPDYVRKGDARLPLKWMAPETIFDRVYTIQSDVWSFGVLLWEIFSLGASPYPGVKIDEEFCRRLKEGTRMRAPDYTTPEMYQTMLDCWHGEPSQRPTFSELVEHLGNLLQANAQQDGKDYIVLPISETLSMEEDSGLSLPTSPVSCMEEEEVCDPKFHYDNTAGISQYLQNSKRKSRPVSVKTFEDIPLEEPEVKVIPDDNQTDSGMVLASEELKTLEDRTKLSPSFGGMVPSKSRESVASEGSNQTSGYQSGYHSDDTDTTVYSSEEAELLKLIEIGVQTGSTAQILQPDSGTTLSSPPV

[2] = tested on: RL952 cells (wildtype FGFR2); test: SRB cell viability assay, RL952; format: cell-based; conditions: Homo sapiens, RL95-2, read-out: PD173074 IC50, cell viability; RL952, SRB assay 72 hours after addition, full growth medium
Experimental: as §1

[3] = tested on: AN3CA cells (N550K FGFR2 mutation); test: SRB cell proliferation/viability assay, AN3CA; format: cell-based; conditions: Homo sapiens, AN3-CA, read-out: PD173074 IC50, cell viability, SRB assay 72 hours after addition, full growth medium
MFE296 cells [4] = test: Annexin V-FITC labeling of apoptotic cells, MFE296; format: cell-based, human; conditions: MFE296, data not shown
Experimental: as §1

ERK1/2 = test: Western blot, activation of ERK1/2; format: cell-based, human
Experimental: (§2) Cells were plated at a density of 4×10^5 cells per well in a 6 well plate. The next day, cells were infected with lentiviral stocks in the presence of 6 μg/ml polybrene (Sigma-Aldrich, St. Louis, Mo.). Empty vector and nonsilencing shRNA infections were used as controls for each experiment. […] Growth Inhibition Assay Twenty-four hours after infection, cells were trypsinized and plated in 96 well plates in full growth medium at a density of 5,000 cells per well, in triplicate, and proliferation assessed using the Sulforhodamine B (SRB) assay (Sigma-Aldrich, St. Louis, Mo.). At the indicated time points, wells were fixed with 10% (wt/vol) trichloroacetic acid, stained with SRB for 30 min, and washed with 1% (vol/vol) acetic acid. The protein-bound dye was dissolved in 10 mM Tris base solution, and absorbance measured at 510 nm. […] Annexin V-FITC Labeling of Apoptotic Cells Annexin V-FITC staining was used to measure phosphatidylserine exposure on cells undergoing apoptosis, according to the manufacturer's instructions (BioVision, Inc. Mountain View, Calif.). […] 2.5×10^5 cells were plated per well in a 6 well plate. Twenty-four hours later, cells were transfected with 25 nM nonsilencing (NS) siRNA or FGFR2 siRNA X2 using Lipofectamine 2000 transfection reagent. The siRNA duplex was allowed to form a complex with Lipofectamine 2000 for 20 minutes at room temperature, and transfection carried out at 37° C. for 24 hours. 48 hours after transfection, floating and attached cells were collected, washed in cold PBS, resuspended in Annexin binding buffer (10 mM Hepes (pH 7.4), 140 mM NaCl, 2.5 mM CaCl2), stained with 500 ng/mL annexinV-FITC and 1 μg/mL propidium iodide (Sigma-Aldrich, St. Louis, Mo.), and analyzed for annexin positive cells using a CyAn ADP flow cytometer and Summit software, version 4.3 (Dako Cytomation, Carpinteria, Calif.). […] Cell Cycle Analysis Cells were plated at a density of 1×10^5 cells per well in a 6 well plate. […] 72 hours later, cells were stained with propidium iodide as described {Krishan, 1975 #28} and analyzed by flow cytometry. Cell cycle analysis was performed using ModFit software (Verity Software House, Inc. Topsham, Me.). Western Blot Analysis Cells were plated in 60 mm^2 dishes at a density of 2×10^6 cells per dish. […] Cells were washed in ice cold PBS, lysed in kinase buffer [20 mM Hepes pH7.4, 2 mM EGTA, 1% Triton X100, 10% glycerol, 1 mM Na3VO4, 1 mM NaF, 100 uM AEBSF, and 1 tablet/10 mL of Mini Complete Protease Inhibitor (Roche Molecular Biochemicals, Indianapolis, Ind.)], briefly sonicated on ice, and protein concentrations estimated using Quick Start Bradford Reagent with bovine gamma-globulin standards (Bio-Rad Laboratories, Hercules, Calif.). Equal amounts of protein were separated by SDS-PAGE on 4-12% gradient gels and transferred to polyvinylidene difluoride membranes (Invitrogen, Carlsbad, Calif.). Membranes were immunoblotted with antibodies to phosphorylated and total AKT, ERK1/2, p38, STAT-3 and STAT-5, PLCγ and total PTEN (Cell Signaling Technology, Beverly, Mass.). FGFR2 expression was detected with BekC17 antibody (Santa Cruz Biotechnology, Inc., Santa Cruz, Calif.). Horseradish peroxidase-conjugated goat anti-mouse or anti-rabbit secondary antibodies (Biomeda, Foster City, Calif.), were used, followed by chemiluminescence staining. For shRNA studies, lysates were collected 48 hours after shRNA transduction and processed as described above. Statistical Analysis

MFE296 cells [5] = test: Cell cycle analysis, MFE296; format: cell-based, human; conditions: MFE296, data not shown
Experimental: as §1

PLCγ = test: Western blot, activation of PLCγ; format: cell-based, human; conditions: following PD173074 treatment, data not shown
Experimental: as §1

[6] = tested on: myeloma cells with an activating t(4; 14) translocation and activating mutations in FGFR3; conditions: t(4; 14) translocation and activating FGFR3 mutations; cited from earlier work
STAT3 = test: Western blot, activation of STAT3; format: cell-based, human; conditions: 10% FBS
Experimental: as §2

[7] = tested on: Ishikawa cells (wildtype FGFR2); test: SRB cell viability assay, Ishikawa; format: cell-based; conditions: Homo sapiens, read-out: PD173074 IC50, cell viability, SRB assay 72 hours after addition, full growth medium
Experimental: as §1

[8] = tested on: KLE cells (wildtype FGFR2); test: SRB cell viability assay, KLE; format: cell-based; conditions: Homo sapiens, read-out: PD173074 IC50, cell viability, SRB assay 72 hours after addition, full growth medium
AN3CA cells [9] = test: Annexin V-FITC labeling of apoptotic cells, AN3CA; format: cell-based, human
Experimental: as §1

[10] = tested on: HEC1A cells (wildtype FGFR2); test: SRB cell viability assay, HEC1A; format: cell-based; conditions: Homo sapiens, HEC-1-A, read-out: PD173074 IC50, cell viability, SRB assay 72 hours after addition, full growth medium
Experimental: as §1

AKT = test: Western blot, activation of AKT; format: cell-based, human; conditions: for AKT activation: HEC1A
Experimental: as §2

[11] = tested on: Hec1A (FGFR2 wild type) xenograft tumors; test: Hec1A xenograft tumor growth; conditions: 25 mg/kg twice daily by oral gavage
Experimental: (§3) Briefly, mice were inoculated subcutaneously with 0.1 ml of a 50% RPMI/50% Matrigel™ mixture containing a suspension of tumor cells (1×10^7 cells/mouse). […] Tumor weight measurements were recorded three times a week.

p38 = test: Western blot, activation of p38; format: cell-based, human; conditions: 10% FBS
Experimental: as §2

[12] = tested on: AN3CA (FGFR2 N550K mutant) xenograft tumors; test: AN3CA xenograft tumor growth; conditions: 25 mg/kg twice daily by oral gavage
Experimental: as §3

[13] = tested on: MFE296 cells (N550K FGFR2 mutation); test: SRB cell proliferation/viability assay, MFE296; format: cell-based; conditions: Homo sapiens, MFE-296, read-out: PD173074 IC50, cell viability; MFE296, SRB assay 72 hours after addition, full growth medium
Experimental: as §1

[14] = AN3CA, 1 μM, 0 to 72 hours, 0.2% FBS
[15] = AN3CA, 1 μM, 0 to 72 hours, 10% FBS
[16] = AN3CA, increasing concentrations, 3 hours, 10% FBS
[17] = MFE296, 1 μM, 0 to 72 hours, 0.2% FBS
[18] = MFE296, 1 μM, 0 to 72 hours, 10% FBS
[19] = MFE296, increasing concentrations, 3 hours, 10% FBS
[20] = AN3CA, increasing concentrations, 3 hours
[21] = HEC1A, increasing concentrations, 3 hours
[22] = MFE296, increasing concentrations, 3 hours

## CCN(CC)CCCCNc1ncc2cc(-c3cc(OC)cc(OC)c3)c(NC(=O)NC(C)(C)C)nc2n1 [PD173074]
AN3CA cells [1]
  cell cycle effect: G1 cell cycle arrest
VEGFR2
  IC50: ~100 nM
[2]
  IC50: > 1000 nM
[3]
  IC50: 61.7 nM
MFE296 cells [4]
  Annexin V staining: did not result in enhanced Annexin V staining
ERK1/2; [14]
  ERK1/2 activation: suppression of ERK1/2 activation
ERK1/2; [15]
  ERK1/2 activation: suppression of ERK1/2 activation
ERK1/2; [16]
  ERK1/2 activation: suppression of ERK1/2 activation
ERK1/2; HEC1A, 1 μM, 0 to 72 hours, 0.2% FBS
  ERK1/2 activation: no effect
ERK1/2; HEC1A, 1 μM, 0 to 72 hours, 10% FBS
  ERK1/2 activation: no effect
ERK1/2; HEC1A, increasing concentrations, 3 hours, 10% FBS
  ERK1/2 activation: no effect
ERK1/2; [17]
  ERK1/2 activation: suppression of ERK1/2 activation
ERK1/2; [18]
  ERK1/2 activation: suppression of ERK1/2 activation
ERK1/2; [19]
  ERK1/2 activation: suppression of ERK1/2 activation
MFE296 cells [5]
  cell cycle effect: induced cell cycle arrest
PLCγ
  PLCγ activation: no change
[6]
  apoptosis in myeloma cells: induce apoptosis
STAT3; AN3CA, 1 μM, 0 to 72 hours
  STAT3 activation: no effect
STAT3; [20]
  STAT3 activation: no effect
STAT3; HEC1A, 1 μM, 0 to 72 hours
  STAT3/5 activation: no effect
STAT3; [21]
  STAT3 activation: no effect
STAT3; MFE296, 1 μM, 0 to 72 hours
  STAT3 activation: no effect
STAT3; [22]
  STAT3 activation: no effect
[7]
  IC50: 2920 nM
[8]
  IC50: > 1000 nM
AN3CA cells [9]; 1 μM, 48, 72 or 96 hours
  Annexin-V staining compared to DMSO: increase in Annexin-V staining
AN3CA cells [9]; 1 μM, 96 hours after drug treatment
  cells undergoing apoptosis (Annexin V-FITC labeling): ~70%
[10]
  IC50: > 3000 nM
AKT; [14]
  AKT phosphorylation: modest suppression of AKT phosphorylation
AKT; [15]
  AKT phosphorylation: partial suppression of AKT phosphorylation
AKT; [16]
  AKT phosphorylation: modest suppression of AKT phosphorylation
AKT; 1 μM, 0 to 72 hours, 0.2% FBS
  AKT activation: no effect
AKT; 1 μM, 0 to 72 hours, 10% FBS
  AKT activation: no effect
AKT; increasing concentrations, 3 hours, 10% FBS
  AKT activation: no effect
AKT; [17]
  AKT phosphorylation: modest suppression of AKT phosphorylation
AKT; [18]
  AKT phosphorylation: partial suppression of AKT phosphorylation
AKT; [19]
  AKT phosphorylation: modest suppression of AKT phosphorylation
[11]
  effect on xenograft tumors: minimal effect
p38; AN3CA, 1 μM, 0 to 72 hours
  p38 activation: no effect
p38; [20]
  p38 activation: no effect
p38; HEC1A, 1 μM, 0 to 72 hours
  p38 activation: no effect
p38; [21]
  p38 activation: no effect
p38; MFE296, 1 μM, 0 to 72 hours
  p38 activation: no effect
p38; [22]
  p38 activation: no effect
[12]
  growth of xenograft tumors: suppressed growth of all eight
  tumors with tumor regression: six of the eight
[12]; regressing tumors
  mean tumor shrinkage: 51%
[13]
  IC50: 284 nM
